Laboratory results: PMC4928336, “A microalga, Euglena tuba induces apoptosis and suppresses metastasis in human lung and breast carcinoma cells through ROS-mediated regulation of MAPKs” (Cancer Cell International, 2016)
≈ marks a conversion by molar mass, not a printed value.

Columns and labels:
Experiment in all cases: cells
A549 cells = settings: for IC50: Homo sapiens, A549, 48 h, read-out: IC50 against A549; for IC50 against A549: WST-1, 48 h, mean ± SD (n = 6)
Experimental: (§1) Cell viability were analysed using the WST-1 cell proliferation reagent according to the earlier described technique. All cells (1 × 10^4 cells/well) were treated for 48 h with concentrations ranging from 0–200 µg/ml of ETME, ascorbic acid, catechin, tannic acid, reserpine, methyl gallate and rutin. Cell proliferation and viability were measured by measuring absorbance of the coloured product spectrophotometrically at 460 nm using a microplate ELISA reader […] EX (Thermo Electron Corporation, USA).
(§2) All spectrophotometric data were presented as the mean six times ±SD and cell cycle and ROS analysis data by FACS was introduced as the mean three times ±SD. The statistical analysis was determined by KyPlot version 2.0 beta 15 (32 bit). […] The IC50 values were compared by paired t test. P < 0.05 was considered significant.

WI-38 cells = settings: for IC50: Homo sapiens, WI-38, 48 h, read-out: IC50 against WI-38; for IC50 against WI-38: WST-1, 48 h, mean ± SD (n = 6)
Experimental: as §1, §2

MCF-7 cells = settings: for IC50: Homo sapiens, MCF7, 48 h, read-out: IC50 against MCF-7; for IC50 against MCF-7: WST-1, 48 h, mean ± SD (n = 6)
Experimental: as §1, §2

IC50 (A549 cells) [µg/mL] | IC50 (MCF-7 cells) [µg/mL] | IC50 against A549 (A549 cells) [µg/mL] | IC50 against MCF-7 (MCF-7 cells) [µg/mL] | Molecule | cytotoxicity against A549 cells (A549 cells) | cytotoxicity against WI-38 cells (WI-38 cells) | IC50 (WI-38 cells) [µg/mL] | cytotoxicity against MCF-7 cells (MCF-7 cells) | IC50 against WI-38 (WI-38 cells) [µg/mL]
6020 ± 3440 (≈ 34200 µM) | 79.1 ± 2.2 (≈ 449 µM) |  |  | O=C1O[C@H]([C@@H](O)CO)C(O)=C1O [Ascorbic acid, reference compound] | negligible cytotoxicity | negligible cytotoxicity | 6800 ± 2250 (≈ 38600 µM) | toxic | 
 |  | 4010.65 ± 1849.57 | 256.52 ± 17.14 | O.Oc1cc(O)c2c(c1)O[C@H](c1ccc(O)c(O)c1)[C@@H](O)C2 [Catechin] | negligible cytotoxicity | negligible cytotoxicity |  | toxic | 753.56 ± 31.99
77.2 ± 1.82 (≈ 420 µM) | 53 ± 1.91 (≈ 288 µM) |  |  | COC(=O)c1cc(O)c(O)c(O)c1 [Methyl gallate] | promissive cytotoxicity | promissive cytotoxicity | 344 ± 31.3 (≈ 1870 µM) | promissive cytotoxicity | 
68.5 ± 1.73 (≈ 112 µM) | 57.3 ± 2.29 (≈ 94.1 µM) |  |  | COC(=O)[C@H]1[C@H]2C[C@@H]3c4[nH]c5cc(OC)ccc5c4CCN3C[C@H]2C[C@@H](OC(=O)c2cc(OC)c(OC)c(OC)c2)[C@@H]1OC [Reserpine, reference compound] | promissive cytotoxicity | promissive cytotoxicity | 50.5 ± 1.48 (≈ 82.9 µM) | promissive cytotoxicity | 
4180 ± 1610 (≈ 6840 µM) | 271 ± 9.85 (≈ 444 µM) |  |  | C[C@@H]1O[C@@H](OC[C@H]2O[C@@H](Oc3c(-c4ccc(O)c(O)c4)oc4cc(O)cc(O)c4c3=O)[C@H](O)[C@@H](O)[C@@H]2O)[C@H](O)[C@H](O)[C@H]1O [Rutin] | negligible cytotoxicity | negligible cytotoxicity | 1230 ± 195 (≈ 2020 µM) | toxic | 
 |  | 302.25 ± 11.86 | 97.24 ± 4.89 | Tannic acid | promissive cytotoxicity | promissive cytotoxicity |  | promissive cytotoxicity | 308.32 ± 8.32
